In patent publication US20230322815A1, “NOVEL COMPOUNDS AND THERAPEUTIC USES THEREOF” (University of Huddersfield, priority 2020, published 2023):

Tests used:
Type in all cases: cell-based, human
HCT116 p53^−/− = assay: Chemosensitivity (MTT, 96 h continuous exposure)
Procedure: FIG. 7. Chemosensitivity response of a panel of human cancer and non-cancer cell lines to 96 h continuous exposure to self-assembling test compounds. a, The potency of compounds tested against cancer (HT-29, DLD-1, HCT116 p53^+/+ and […], PSN1, MiaPaCa2, BxPC3, A549, H460 and GBM1) and non-cancer cells (ARPE-19, MCF10A and NP1). Each value represents the mean IC50±standard deviation from a minimum of three independent experiments. b,c, The selectivity index (SI) for [L2Cu3]^6+ (b) and [L2Zn3]^6+ (c) for the indicated cancer cell lines; SI is defined as the mean IC50 against the particular non-cancer cell line model divided by the mean IC50 against the particular cancer cell line. […] As the SI value is calculated using the mean IC50 values, experimental error is not included in these figures. d,e, IC50 values for the clinically approved platinates (cisplatin, oxaliplatin and carboplatin) and [L2Mn3]^6+ and the corresponding SI results.
All cell lines used were maintained at low passage in antibiotic-free media and were obtained from ATCC (LGC Standards, Middlesex, UK) unless otherwise stated (Methods). HT29, DLD-1, HCT116 p53^+/+ and HCT116 p53^−/− are all colorectal adenocarcinoma cell lines derived from different individuals and harbor different combinations of oncogenic lesions (except for the HCT116 isogenic cancer cell clones that are genetically identical except for p53 status). PSN-1, BxPC-3 and MiaPaCa2 are pancreatic carcinoma cell lines and A549 and H460 are lung carcinoma cell lines. HT29, DLD-1, PSN-1, BxPC-3, A549 and H460 cell lines were cultured in RPMI-1640 growth media (Sigma) containing 2 mM L-glutamine, 1 mM sodium pyruvate and 10% fetal bovine serum (FBS). HCT116 (p53^+/+ and p53^−/−) and MiaPaCa2 cell lines were cultured in Dulbecco's Modified Eagle's Medium (Sigma), 2 mM L-glutamine and 10% FBS. The ARPE-19 retinal epithelial non-cancer cell line (Dunn et al., 1996) was cultured in DMEM/F12 media (Gibco), 2 mM L-glutamine, 1 mM sodium pyruvate and 10% FBS. The MCF10A non-cancerous human breast epithelial cell line was cultured in Minimal Essential Media Eagle (Sigma), 2 mM L-glutamine, 1 mM sodium pyruvate, 10% FBS and 1×non-essential amino acids (NEAA). NP1 and GBM1 cells were cultured on plasticware coated with poly-L-ornithine (5 μg/ml) and laminin (2.4 μg/ml) (Polson et al., 2018; Da Silva et al., 2019). […]
[L2M3]^6+ and all the other self-assembling complexes were freshly formed by adding DMSO to individual components mixing together by pipetting. […] Media and MTT were removed and formazan crystals were dissolved in 150 μl of DMSO and the absorbance of the resulting solution determined at 540 nm. […]

[1] = test system: HCT116 p53^+/+ cancer cells; assay: Autophagy (CYTO-ID staining, confocal); details: 3.125 μM, 40 h
Procedure: FIG. 18. The effects of [L2Cu3]^6+, [L2Zn3]^6+ and [L2Mn3]^6+ on cellular vacuole formation and autophagy in the HCT116 p53^+/+ cancer cells. Representative confocal images are shown of HCT116 p53^+/+ cancer cells following 40 h treatment with vehicle control or 3.125 μM [L2Cu3]^6+, [L2Zn3]^6+, or [L2Mn3]^6+.
Autophagy studies: The effects of 3.125 μM [L2Cu3]^6+, [L2Zn3]^6+ and [L2Mn3]^6+ treatments (40 h) on the induction of cellular vacuoles and autophagy in the HCT116 p53^−/−, HCT116 p53^+/+ and ARPE19 cells are presented in FIGS. 17-19 with representative cell images shown. […] In the ARPE19 cells, levels of autophagy were low with all treatments and similar to basal levels in control-treated cells (FIG. 19).

ARPE19 non-cancer cells = assay: Cellular ATP levels; details: 100 μM, 20 h
Procedure: FIG. 20. The effects of [L2Cu3]^6+, [L2Zn3]^6+ and [L2Mn3]^6+ on cellular ATP levels in the ARPE19 non-cancer and HCT116 p53^+/+ cancer cells. The effects of 20 h treatment with the indicated concentrations of [L2Cu3]^6+, [L2Zn3]^6+, or [L2Mn3]^6+ on total cellular levels of ATP compared to levels in vehicle control-treated ARPE19 or HCT116^+/+ cells. n=3 biological repeats, students t-test (p values).
Cellular ATP studies: The effects of 20 h treatment with a range of different concentrations of [L2Cu3]^6+, [L2Zn3]^6+ and [L2Mn3]^6+ on total cellular ATP levels in HCT116 p53^+/+ and ARPE19 cells are presented in FIG. 20. Differential effects are observed depending on the metal in the complex, with [L2Mn3]^6+ having the most profound effects on both the HCT116 p53^+/+ cancer and ARPE19 non-cancer cells. 6.25 μM [L2Mn3]^6+ treatment for 20 h reduced ATP levels in the HCT116 p53^+/+ cancer cells to <50% with ATP levels declining less in the ARPE19 non-cancer cells but reaching ˜40% with 100 μM [L2Mn3]^6+ treatment. […] Effects of [L2Cu3]^6+ on ATP levels was much less, with ATP levels in the HCT116 cells reduced to <50% only at the highest concentration of 100 μM.

[Zn+2].[Zn+2].[Zn+2].c1ccc(-c2csc(NCCN(CCNc3nc(-c4ccccn4)cs3)CCNc3nc(-c4ccccn4)cs3)n2)nc1.c1ccc(-c2csc(NCCN(CCNc3nc(-c4ccccn4)cs3)CCNc3nc(-c4ccccn4)cs3)n2)nc1 [[L2Zn3]^6+]
selectivity index (IC50 non-cancer cells / IC50 cancer cells) (HCT116 p53^−/−; HCT116 p53^−/− compared to ARPE-19): over 2000 | selectivity index (IC50 non-cancer cells / IC50 cancer cells) (HCT116 p53^−/−; HCT116 p53^−/− compared to MCF10A): over 2000 | IC50 (HCT116 p53^−/−; HCT116 p53^−/−, 96 h, MTT): 70 ± 13 nM | fold more active towards HCT116 p53^−/− than HCT116 p53^+/+ (HCT116 p53^−/−; based on 96 h IC50 values): ~6 fold | induction of autophagy [1]: barely detectable | ATP levels compared to vehicle control (ARPE19 non-cancer cells): > 70%
